In publication PMC5307958 (Scientific Reports, 2017):
Entries after “also recorded” stand apart in the source; their conditions may differ. Where a SMILES comes first, the peptide text is derived from it. Bridges are numbered along the chain shown (N, C = ends).

Legend:
[1] = target: T1, human BKα channel (ZERO isoform) expressed in HEK293 cells (Homo sapiens, UniProt Q12791); assay: Patch-clamp recording, inside-out patches, extracellular application; format: cell-based
T1 construct: expressed in transfected cells; host or cells: HEK293 (ATCC), transient transfection with Lipofectamine 2000; EGFP cotransfected as a separate marker
T1 sequence (Q12791 1-1178 isoform Q12791-5): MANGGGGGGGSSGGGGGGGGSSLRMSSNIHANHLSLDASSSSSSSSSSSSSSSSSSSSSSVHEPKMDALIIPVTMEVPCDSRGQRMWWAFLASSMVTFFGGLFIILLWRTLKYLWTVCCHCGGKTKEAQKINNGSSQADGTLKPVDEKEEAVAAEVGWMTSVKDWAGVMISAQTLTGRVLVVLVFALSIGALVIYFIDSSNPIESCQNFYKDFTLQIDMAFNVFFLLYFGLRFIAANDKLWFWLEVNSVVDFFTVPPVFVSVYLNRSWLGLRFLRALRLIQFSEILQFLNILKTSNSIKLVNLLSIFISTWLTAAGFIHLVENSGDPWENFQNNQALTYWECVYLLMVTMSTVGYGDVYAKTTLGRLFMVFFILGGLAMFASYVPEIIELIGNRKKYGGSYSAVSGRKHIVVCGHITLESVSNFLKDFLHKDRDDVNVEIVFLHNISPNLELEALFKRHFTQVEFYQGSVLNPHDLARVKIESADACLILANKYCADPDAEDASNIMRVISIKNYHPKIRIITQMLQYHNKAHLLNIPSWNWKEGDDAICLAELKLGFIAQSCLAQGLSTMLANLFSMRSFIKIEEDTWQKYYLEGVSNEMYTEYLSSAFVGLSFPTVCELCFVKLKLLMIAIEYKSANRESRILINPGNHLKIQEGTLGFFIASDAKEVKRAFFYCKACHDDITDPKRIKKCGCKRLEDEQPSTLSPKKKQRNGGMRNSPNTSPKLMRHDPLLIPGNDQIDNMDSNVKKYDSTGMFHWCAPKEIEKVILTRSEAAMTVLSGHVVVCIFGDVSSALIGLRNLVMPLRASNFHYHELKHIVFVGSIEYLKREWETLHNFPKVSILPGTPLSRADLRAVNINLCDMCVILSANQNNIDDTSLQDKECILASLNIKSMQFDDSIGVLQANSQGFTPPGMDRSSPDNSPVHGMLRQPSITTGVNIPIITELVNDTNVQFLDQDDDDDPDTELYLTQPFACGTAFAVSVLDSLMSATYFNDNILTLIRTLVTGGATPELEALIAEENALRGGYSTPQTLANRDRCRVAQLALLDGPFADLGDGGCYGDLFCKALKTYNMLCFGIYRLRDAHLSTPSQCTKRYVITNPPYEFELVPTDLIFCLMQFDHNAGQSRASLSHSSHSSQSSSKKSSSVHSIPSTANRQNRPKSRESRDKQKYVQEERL
Procedure: (§1) HEK293 cells (ATCC, Manassas, VA) were grown according to standard procedures. Cells were cultured at 37 °C in a 5% CO2 atmosphere in Dulbecco’s modified Eagle’s medium with L-glutamine, sodium pyruvate and 10% fetal bovine serum (Invitrogen). Cell lines were split with trypsin/EDTA in Hanks’ balanced salt solution (Invitrogen) up to 25–30 cycles. For phage display, stable lines stably expressed rSK2 or hBKα ZERO isoform. Cells were transfected (Lipofectamine 2000, Invitrogen) with hGlyRα1 and used 48 hours later. For electrophysiological recordings, cells were transfected with hBKα ZERO isoform. Enhanced green fluorescent protein (EGFP) was cotransfected as a marker. Electrophysiological recordings were made 16–72 h after transfection. Although the profile of BK channel composition varies from tissue to tissue, the ZERO BK channel splice variant is widely expressed, particularly in the nervous system, serving as a representative form for studying the modulation of BK channel gating.
Voltage-clamp recordings were performed at room temperature (22–24 °C) using an inside-out configuration on patches pulled from HEK293 cells. The extracellular solution contained the following (in mM): 2 KCl, 136 KOH, 20 HEPES, 2 MgCl2, adjusted to pH 7.2 with MeSO3H. In order to apply peptide to the extracellular surface, patch electrodes (7–20 MΩ in resistance) were tip-filled with normal extracellular solution and backfilled with extracellular solution containing LS3. Enough normal extracellular solution was included to provide at least five minutes of peptide-free recording (determined by plotting Po vs. time). The intracellular solution (in the bath) contained the following (in mM): 6 KCl, 132 KOH, 20 HEPES, adjusted to pH 7.2 with MeSO3H. To achieve 750 nM free Ca^2+, […] and 5 mM EGTA were included, a ratio verified by measurement with a Ca^2+-sensitive electrode. Voltage-clamp recordings made with an Axopatch 200 A amplifier and custom macros in IgorPro. Analysis was performed with QUB (http://www.qub.buffalo.edu), including Po, mean open time and three component exponential fits to closed dwell times. Group means±SEM for post-peptide measures were plotted relative to pre-peptide values and compared with pre values via planned paired t-tests.

[2] = test system: auditory nerve and generators caudal to the IC; assay: Auditory brainstem responses (ABR); format: in vivo, mouse
Procedure: The temperature was maintained near 25 °C.
ABR recordings were acquired after the mice were anesthetized with ketamine (120 mg/kg) and xylazine (10 mg/kg) I.P., and respiration was monitored throughout to determine when additional supplemental doses were needed. Body temperature was kept constant at 37 °C using a feedback controlled heating pad (Physitemp TCAT2-LV Controller, Clifton, NJ). Stimuli and recordings were generated digitally and controlled using a TDT RZ6 Multi-I/O Processor and their BioSig/SigGen software. Acoustic signals were played through a multi-field (MF1) magnetic speaker (TDT, Alachua, FL) with a total harmonic distortion < = 1% from 1 kHz to 50 kHz, centered 0° azimuth in regards to the animal at a distance of 10 cm from the ear pinna. Tone bursts were presented at frequencies of 6, 12, 16, 20, 24, and 36 kHz (3 ms duration, 1 ms rise/fall time, alternating polarity) at a rate of 29 per second, attenuated in 5 dB steps from 80 dB SPL to 15 dB below threshold or 5 dB SPL, whichever was lower. Threshold was determined by visual inspection as the lowest intensity level which produced a defined wave in both replicates. All signals were calibrated using a Larsen Davis preamplifier, model 2221, with a 1/4″ microphone and a Larson Davis CAL200 Precision Acoustic Calibrator (PCB Piezotronics, Inc., Depew, NY). ABR recordings were acquired using a TDT RA4LI low-impedance digital headstage and RA4PA Medusa preamp with the active (noninverting) electrode inserted at the vertex, the reference (inverting) electrode below the left ear, and the ground electrode below the right ear. The responses were amplified (20×), filtered (300 Hz–3 kHz), and averaged using BioSig software and the System III hardware (TDT) data-acquisition system. A total of 256 tone burst signal and 150 GIN signal recordings were replicated for each acquisition, and muscle artifacts exceeding 7 μV were rejected from the averaged response. All recordings took place in a soundproof booth lined with echo-attenuating acoustic foam. ABR waveforms were analyzed using a custom MatLab program that automatically determined peak latencies and amplitudes in combination with secondary verification by an experimenter blind to the treatment group.

[3] = test system: human BKα channel ZERO isoform expressed in HEK293 cells; assay: Phagemid display selection (panning); format: binding
Excerpt: A monovalent phagemid display library (library C, Mobitec) was sequentially panned against three sets of HEK293 cells (see below). For negative selection, cells expressed the human glycine receptor α1 (hGlyRα1, X52009) and the rat small conductance calcium-activated channel 2 (rSK2, U69882.1). For positive selection, cells expressed the human BKα channel ZERO isoform (NM_002238). The progress of the selection process was monitored after each panning round by titering and sequencing the phagemid DNA. With 6 randomized and 3 fixed amino acids, this library started with 3 × 10^7 unique sequences. LS3 was selected as one of the sequences expressing motifs that were enriched more than 1000 -fold. LS3 was synthesized as a TFA salt at 98–99% purity verified by HPLC and MS analysis (Genscript, Piscataway, NJ). Stocks were dissolved in water at 10 mM and aliquots were lyophilized and stored at −80 °C. As a secondary determination of identity and purity, in-house LC/MS was performed on a single quadrupole Mass Spectrophotometer (Agilent 6130) interfaced with a HPLC with a diode-array (UV-vis) detector (Agilent 1200).
as §1, with “Although the profile of BK channel composition varies from tissue to tissue, the ZERO BK channel splice variant is widely expressed, particularly in the nervous system, serving as a representative form for studying the modulation of BK channel gating.” left out

[4] = phage-displayed sequence CRRGLVQVC

CC(C)C[C@@H]1NC(=O)CNC(=O)[C@H](CCCNC(=N)N)NC(=O)[C@H](CCCNC(=N)N)NC(=O)[C@@H](N)CSSC[C@@H](C(=O)O)NC(=O)[C@H](C(C)C)NC(=O)[C@H](CCC(N)=O)NC(=O)[C@H](C(C)C)NC1=O [LS3] (H-CRRGLVQVC-OH; disulfide 1-9; N-terminus and C-terminus assumed)
effect on Po (post vs. pre peptide) ([1]; 50 pM LS3, extracellular, any voltage (60–100 mV), 750 nM Ca): did not significantly alter the Po | effect on Po (post vs. pre peptide) ([1]; 500 pM to 500 nM LS3, extracellular, each holding potential 60–100 mV, 750 nM Ca, N = 6–12): reduced the Po at each holding potential | effect on Po (post vs. pre peptide) ([1]; 50 nM LS3 applied to extracellular (external) side, each voltage, p < 0.05, N = 6): reduction in Po at each voltage; also recorded: significantly reduce Po at all voltages | short closed dwell times ([1]; 500 nM LS3, 750 nM Ca, three-component exponential fits, component 0, N = 8): remained unchanged; also recorded: did not change significantly | long closed dwell times ([1]; 500 nM LS3, 750 nM Ca, three-component exponential fits, component 2, p < 0.05, N = 8): increased; also recorded: lengthened | post Po relative to pre ([1]; 500 nM LS3, 40 mV, p < 0.05): 0.54 ± 0.17 | single channel conductance post LS3 ([1]; 500 nM LS3, 60 mV, pre peptide 282 ± 4.62 pS (remained stable)): 287 ± 5.12 pS | mean open times ([1]; 500 nM LS3, all holding potentials 60–100 mV, 750 nM Ca, p < 0.05, N = 8): decreasing mean open times at all holding potentials; also recorded: shortened openings | reduction of probability of channel opening (Po) ([1]; 60 mV, high picomolar to nanomolar LS3, extracellular, intracellular calcium 750 nM): ~ 60% | apparent affinity compared with known blockers ([1]; LS3 vs. known high affinity BK channel toxins / Kv peptide toxins or paxilline): higher than known high affinity BK channel toxins; also recorded: higher apparent affinity than Kv peptide toxins or paxilline | mode of action on channel ([1]; from change in mean open and closed times, rather than blocking the pore): modulates channel gating | IC50 for reduction of BK channel open probability (Po) ([1]; inside-out patches, peptide applied to extracellular side, intracellular calcium 750 nM, 22–24 °C, approximate, in words): mid-picomolar range | mean ABR thresholds ([2]; 4 hours post I.P. injection vs. baseline, tone bursts): No significant effect | activity at cochlear BK channels ([2]; inferred from unaltered ABRs after systemic administration): not active at cochlear BK channels | effect on ABRs / peripheral auditory processing ([2]; systemic (I.P.) administration): without altering peripheral auditory processing; also recorded: does not alter ABRs | ABR peak 1 (P1) amplitude by intensity functions ([2]; systemic (I.P.) injection, 4 hrs vs. baseline, auditory nerve): unaffected; also recorded: Neither BK channel modulator reduced auditory nerve (P1) | ABR peak 4 (P4) amplitude by intensity functions ([2]; systemic (I.P.) injection, 4 hrs vs. baseline, generators caudal to the IC (brainstem)): unaffected; also recorded: Neither BK channel modulator reduced auditory nerve (P1) or brainstem (P4) amplitudes | enrichment of motifs expressed by the sequence ([3]; criterion for selection of LS3): more than 1000 fold | enrichment of motif RRXXXXV during selection [3, 4]: ~ 4000 fold | enrichment of motif XRGXXXV during selection [3, 4]: ~ 3000 fold
